Columns and labels:
[1] = tested on: PDGF receptor; conditions: general statement, method or value not given; cited from earlier work
[2] = tested on: EPH receptor; conditions: general statement, method or value not given; cited from earlier work
[3] = aqueous solubility of Compound I as a function of pH; type: physicochemical; conditions: aqueous medium, pH of 2 compared with pH of 5

## Cc1nc(Nc2ncc(C(=O)Nc3c(C)cccc3Cl)s2)cc(N2CCN(CCO)CC2)n1 [Compound I, N-(2-chloro-6-methylphenyl)-2-((6-(4-(2-hydroxyethyl)-1-piperazinyl)-2-methyl-4-pyrimidinyl)amino)-1,3-thiazole-5-carboxamide]
[1]
  inhibition of PDGF receptor: potent inhibitor
[2]
  inhibition of EPH receptor: potent inhibitor
[3]
  aqueous solubility: higher solubility at a pH of 2 than at a pH of 5

Reference: patent publication US20080275009A1, “ORAL ADMINISTRATION OF N-(2-CHLORO-6-METHYLPHENYL)-2-[[6-[4-(2-HYDROXYETHYL)-1-PIPERAZINYL]-2-METHYL-4-PYRIMIDINYL]AMINO]-1,3-THIAZOLE-5-CARBOXAMIDE AND SALTS THEREOF” (Bristol-Myers Squibb Company, priority 2005, published 2008)
